# Assay results taken from patent US20260021046A1, “LIPID NANOPARTICLE AND PHARMACEUTICAL COMPOSITION” (NATIONAL UNIVERSITY CORPORATION HOKKAIDO UNIVERSITY, priority 2022, published 2026).
# System: hepatic stellate cells
# Test: In vivo mRNA delivery to hepatic stellate cells in TAA-induced liver fibrosis model mice
# Details: 24 hours
# Protocol: Thioacetamide (TAA (TCI, Japan))-induced liver fibrosis models were generated in 4-week-old male BALB/c mise (Sankyo laboratories, Japan). Specifically, TAA dissolved in saline was injected intraperitoneally at an amount of 200 mg/kg of TAA per kg of body weight. This was repeated every 3 days for a total of 10 times. The livers of the liver fibrosis model mice were examined by histopathology and hydroxyproline quantitative assay (Cell Biolabs Inc, USA), and the activation of hepatic stellate cells (HSCs) was confirmed by quantitative real-time polymerase chain reaction (qRT-PCR).
# The lipid nanoparticles prepared by using CL15A6 encapsulated the above-described EGFP mRNA or firefly luciferase (FLuc) mRNA (TriLink BioTechnologies, USA), and the lipid nanoparticles were administered intravenously to mice via the tail vein so that the amount of RNA per kg of body weight was 1 mg/kg. Twenty-four hours after the administration, hepatic stellate cells and hepatocytes were collected from the livers of the mice as described in NPL 15. For EGFP mRNA, FACS was used to evaluate delivery efficiency and transfection efficiency, and for FLuc mRNA, the luciferase assay was used to evaluate delivery efficiency as described in NPL 16. • [NPL 15] Ingmar Mederacke, et al., “High-yield and high-purity isolation of hepatic stellate cells from normal and fibrotic mouse livers”, Nature Protocols, Vol. 10, pp. 305-315 • [NPL 16] Ikramy A. Khalil, et al., “Synergism between a cell penetrating peptide and a pH-sensitive cationic lipid in efficient gene delivery based on double-coated nanoparticles”, Journal of Controlled Release, Vol. 275, pp. 107-116
# First, the microchannel device (iLiNP device) was operated under different conditions to prepare lipid nanoparticles with different average particle sizes. Specifically, lipid nanoparticles with an average particle size of more than 150 nm (e.g., 180 nm), lipid nanoparticles with an average particle size of 100 to 150 nm (e.g., 130 nm), and lipid nanoparticles with an average particle size of less than 100 nm (e.g., 90 nm) were prepared. The prepared lipid nanoparticles were administered intravenously to mice with liver fibrosis, and the mRNA delivery efficiency and transfection efficiency with respect to hepatic stellate cells and hepatocytes were evaluated 24 hours later.
# Next, lipid nanoparticles with different nitrogen/phosphate (N/P) ratios were prepared by mixing a lipid composition containing CL15A6 with mRNA at different ratios. Specifically, lipid nanoparticles with N/P ratios of 4, 8, 12, 16, and 20 were prepared. The prepared lipid nanoparticles were intravenously administered to mice with liver fibrosis, and the mRNA delivery efficiency and transfection efficiency with respect to hepatic stellate cells and hepatocytes were evaluated 24 hours later.
# Next, lipid nanoparticles containing different types of helper phospholipids were prepared by changing the type of helper phospholipid in the lipid composition containing CL15A6. As the unsaturated phosphatidylethanolamine, 1,2-dioleoyl-sn-glycero-3-phosphoethanolamine (DOPE) was used. As the unsaturated phosphatidylcholine, 1,2-dioleoyl-sn-glycero-3-phosphocholine (DOPC) was used. As the saturated phospholipid, 1,2-distearoyl-sn-glycero-3-phosphocholine (DSPC) was used. The prepared lipid nanoparticles were intravenously administered to mice with liver fibrosis, and the mRNA delivery efficiency and transfection efficiency with respect to hepatic stellate cells and hepatocytes were evaluated 24 hours later.
# Next, lipid nanoparticles containing helper phospholipid (DOPE) at different molar percentages were prepared by changing the molar ratio of the helper phospholipid (DOPE). The prepared lipid nanoparticles were intravenously administered to mice with liver fibrosis, and the mRNA delivery efficiency and transfection efficiency with respect to hepatic stellate cells and hepatocytes were evaluated 24 hours later. […]
# [1] = CL15A6 lipid nanoparticles iv, DMG-PEG2K 3 to 5 mol %
# [2] = CL15A6 lipid nanoparticles, 1 mg/kg RNA iv, when particle size was reduced (>150 nm, 100 to 150 nm, <100 nm)
structure (smiles),measurement,setting,value
"CCCCC/C=C\C/C=C\CCCCCCCCC(O)(CCCCCCCC/C=C\C/C=C\CCCCC)CCCCOC(=O)C1CCN(C)CC1 [CL15A6, (14z,17z)-5-hydroxy-5-((9z,12z)-octadeca-9,12-dien-1-yl)tricosa-14,17-dien-1-yl 1-methylpiperidine-4-carboxylate]",mRNA delivery efficiency,"CL15A6 lipid nanoparticles iv, DMG-PEG2K 1.5 mol %",decreased
same,efficiency of mRNA delivery to hepatic stellate cells,[1],high
same,hepatic stellate cells transfected in vivo,[1],≥ 80%
same,delivery of mRNA to hepatic stellate cells,"CL15A6 lipid nanoparticles iv, DOPE 20 to 30 mol %",significantly improved
same,delivery of mRNA to hepatic stellate cells,"CL15A6 lipid nanoparticles iv, DOPE 40 mol %",reduced
same,delivery of mRNA to hepatic stellate cells,"CL15A6 lipid nanoparticles iv, N/P ratio increased from 4 to 8",significantly improved
same,mRNA delivery efficiency,"CL15A6 lipid nanoparticles iv, N/P ratio increased from 16 to 20",decreased
same,mRNA delivery to hepatic stellate cells,"CL15A6 lipid nanoparticles iv, helper phospholipid DOPE compared to DOPC and DSPC",significantly improved
same,mRNA delivery efficiency to hepatic stellate cells,[2],linearly improved
same,transfection efficiency of hepatic stellate cells,[2],linearly improved
